Measured values taken from US20130035343A1, “COMBINATION OF ORGANIC COMPOUNDS” (priority 2010, published 2013).

Test system: patient-derived HCC xenograft lines (07-0409, 29-0909A, 01-0909)
Experiment: Patient-derived HCC xenograft models in SCID mice
Settings: for tumor growth rate of xenografts / tumor regressions: single agent therapy, 30 mg/kg Compound of Formula I or 5 mg/kg RAD001 orally daily, HCC07-0409
[1] = 30 mg/kg Compound of Formula I orally daily, SCID mice

Protocol: Xenograft models: All mice were provided with sterilized food and water ad libitum and housed in negative pressure isolators with 12 hours light/dark cycle. Primary HCCs have previously been used to create xenograft lines, of which the following lines (07-0409, 29-0909A, 01-0909) were used to establish tumors in male SCID mice (Animal Resources Centre, Canning Vale, Western Australia) aged 9 to 10 weeks.
Tumor treatment: Compound of Formula I and RAD001 was dissolved in vehicle at an appropriate concentration before treatment. Mice bearing indicated tumors were orally administered 5 mg/kg RAD001 or 30 mg/kg Compound of Formula I daily, or two compounds combined for indicated days. Each treatment group was comprised of 10 animals and each experiment was repeated at least twice. Treatment started on day 7 after tumor implantation. By this time, the tumors reached the size of approximately 100 mm^3. Tumor growth was monitored and tumor volume was calculated as described. At the end of the study, the mice were sacrificed with body and tumor weights recorded and the tumors harvested for analysis. The efficacy of Compound of Formula I was determined by T/C ratio, where T and C are median weight of drug-treated and vehicle-treated tumor respectively at the end of treatment.

With `CN1CCN(c2ccc3nc(-c4c(N)c5c(F)cccc5[nH]c4=O)[nH]c3c2)CC1` [Compound of Formula I, 4-Amino-5-fluoro-3-[6-(4-methylpiperazin-1-yl)-1H-benzimidazol-2-yl]-1H-quinolin-2-one] the “acute mortality throughout treatment” value [1] was “no acute mortality”, the “body weight loss throughout treatment” value [1] was “no significant weight loss” and the “anti-tumor activities on patient-derived HCC xenograft lines” value (lines 07-0409, 29-0909A, 01-0909, 30 mg/kg orally daily) was “observed”. For the same compound, the “tumor growth rate of xenografts” value was “inhibited” and the tumor regressions was “did not induce tumor regressions”.

In the case of `CO[C@H]1C[C@@H]2CC[C@@H](C)[C@@](O)(O2)C(=O)C(=O)N2CCCC[C@H]2C(=O)O[C@H]([C@H](C)C[C@@H]2CC[C@@H](OCCO)[C@H](OC)C2)CC(=O)[C@H](C)/C=C(\C)[C@@H](O)[C@@H](OC)C(=O)[C@H](C)C[C@H](C)/C=C/C=C/C=C/1C` [RAD001, 40-O-(2-hydroxy)ethyl-rapamycin, reference compound], the “tumor growth rate of xenografts” value is reported as “inhibited” and the tumor regressions is reported as “did not induce tumor regressions”.
